# Data published in patent publication US9526680B2, “Method for searching for malodor control agent, malodor control agent, and malodor control method” (Kao Corporation, priority 2010, dated 2016).
# Legend:
# OR51L1 = target: T1, OR51L1 (Homo sapiens, UniProt Q8NGJ5); test: Luciferase reporter gene assay, OR51L1 expressed in HEK293 cells; type: cell-based; details: for Inhibition ratio of OR51L1 response: response to hexanoic acid, test substance added together with hexanoic acid, HEK293
# T1 construct: expressed in transfected cells; host or cells: HEK293
# T1 sequence (Q8NGJ5 1-315): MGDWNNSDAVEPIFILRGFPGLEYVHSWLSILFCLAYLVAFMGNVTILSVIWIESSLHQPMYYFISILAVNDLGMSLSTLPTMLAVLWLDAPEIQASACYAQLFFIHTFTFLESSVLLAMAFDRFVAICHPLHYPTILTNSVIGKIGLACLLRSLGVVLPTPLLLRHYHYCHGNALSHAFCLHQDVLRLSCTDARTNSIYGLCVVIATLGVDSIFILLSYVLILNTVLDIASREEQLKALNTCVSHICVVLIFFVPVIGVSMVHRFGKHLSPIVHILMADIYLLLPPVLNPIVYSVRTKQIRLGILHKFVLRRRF
# Procedure: (§1) Cloning of human olfactory receptors was performed based on the sequence information registered in GenBank, through PCR with human genomic DNA female (G1521: Promega) as a template. Each of the genes amplified through PCR was inserted into a pENTR vector (Invitrogen) according to an instruction manual. Then, the gene-inserted vector was digested with NotI and AscI, and the obtained fragments were inserted into NotI and AscI sites located downstream of the Flag-Rho tag sequence in the pME18S vector.
# (§2) Each of the 350 types of human olfactory receptors was expressed in HEK293 cells. A reaction solution having a composition shown in Table 2 was prepared on a clean bench, and left to stand for 15 minutes. The solution was dispensed to each well of a 96-well plate (BD). Subsequently, […] cells (100 μL, 3×10^5 cells/cm^2) were seeded in each well and cultured for 24 hours in an incubator at 37° C. and under 5% CO2 conditions.
# (§3) The olfactory receptor expressed in HEK293 cell was conjugated with cell-intrinsic Gas to activate adenylate cyclase, and thereby the level of intracellular cAMP was increased. For the measurement of the response to odor in this study, the luciferase reporter gene assay was used, in which an increase in the amount of intracellular cAMP was monitored by using the emission value originating from firefly luciferase gene (fluc2P-CRE-hygro) as an indicator. Furthermore, a gene product obtained by fusing renilla luciferase gene in the downstream of CMV promoter (hRluc-CMV) was simultaneously introduced, and this was used as an internal standard for correcting an error in the transgenesis efficiency or the number of cells. The medium was removed from the culture prepared in the above-described section 3) by using a Pipetman, and 75 μl of a solution containing an odor substance (1 mM hexanoic acid or 300 μM nonanoic acid) prepared in CD293 medium (Invitrogen) was added thereto. The cells were cultured for 4 hours in a CO2 incubator, and the luciferase gene was sufficiently expressed in the cells. For the measurement of luciferase activity, the measurement was carried out by using a Dual-Glo™ luciferase assay system (Promega) according to the operation manual of the product. A value calculated by dividing the emission value, derived from a firefly luciferase induced by the stimulation with an odor substance, by the emission value in cells that were not-stimulated with an odor substance, was designated as a fold increase, and used as an index of response intensity.
# (§4) OR2W1, OR10A6, OR51E1, OR51I2, and OR51L1 were respectively expressed in HEK293 cells by the same method as that used in Example 1, and a luciferase assay was carried out. In the luciferase assay, hexanoic acid was used as the odorous substance, and test substances were added together with hexanoic acid. The response of the olfactory receptors to hexanoic acid was measured, and a decrease in the receptor response to the addition of test substances was evaluated.
# (§5) The inhibition ratios of the receptor response to test substances were calculated as follows. The emission value (Y) obtained from the cells in which the same receptors were introduced but no odor stimulation was conducted, was subtracted from the emission value derived from firefly luciferase (X) induced by odor stimulation with hexanoic acid alone. Similarly, the emission value (Y) obtained from the cells in which no odor stimulation was conducted, was subtracted from the emission value (Z) caused by stimulation with a mixture of hexanoic acid and a test substance. By the following calculation formula, the inhibitory activity of the test substance to receptor response was calculated based on the increment of the emission value (X−Y) caused by stimulation of hexanoic acid alone. Multiple independent experiments were performed in duplicate, and the average of each experiment was obtained. Inhibition ratio (%)={1−(Z−Y)/(X−Y)}×100 […]
# [1] = Sensory evaluation test of isovaleric acid odor inhibition; type: in vivo; details: test substance diluted 1000 times with propylene glycol, 5 panelists (FIG. 7)
# Procedure: (§6) Cotton balls were introduced into a glass bottle (Hakuyo Glass Co., Ltd. No. 11, capacity 110 ml), and hexanoic acid diluted 100 times with propylene glycol, nonanoic acid diluted 10 times with propylene glycol, or isovaleric acid diluted 1000 times with propylene glycol, as a malodor, and a test substance were added dropwise in an amount of […] to the cotton balls. The glass bottle was left to stand overnight at room temperature, and the odor molecules were sufficiently volatilized in the glass bottle. A sensory evaluation test was carried out by a panel of three panelists (5 panelists for isovaleric acid), and while the intensity of odor in the case of adding dropwise the malodor alone was rated as 5, the intensity of the malodor in the case of incorporating a test substance was evaluated on the basis of a system of 20 grades from 0 point to 10 points (0.5 points per grade). […]
# [2] = Sensory evaluation test of cresol odor inhibition (specificity); type: in vivo; details: cresol and test substance each diluted 100 times with propylene glycol (FIG. 8)
# Procedure: Cotton balls were introduced into a glass bottle (Hakuyo Glass Co., Ltd. No. 11, capacity 110 ml), and hexanoic acid diluted 100 times with propylene glycol, nonanoic acid diluted 10 times with propylene glycol, or isovaleric acid diluted 1000 times with propylene glycol, as a malodor, and a test substance were added dropwise in an amount of […] to the cotton balls. The glass bottle was left to stand overnight at room temperature, and the odor molecules were sufficiently volatilized in the glass bottle. A sensory evaluation test was carried out by a panel of three panelists (5 panelists for isovaleric acid), and while the intensity of odor in the case of adding dropwise the malodor alone was rated as 5, the intensity of the malodor in the case of incorporating a test substance was evaluated on the basis of a system of 20 grades from 0 point to 10 points (0.5 points per grade).
# In the experiment, cresol diluted 100 times with propylene glycol was used as the malodor, and florhydral diluted 100 times with propylene glycol was used as the test substance.
# OR51I2 = target: T2, OR51I2 (Homo sapiens, UniProt Q9H344); test: Luciferase reporter gene assay, OR51I2 expressed in HEK293 cells; type: cell-based
# T2 construct: expressed in transfected cells; host or cells: HEK293
# T2 sequence (Q9H344 1-312): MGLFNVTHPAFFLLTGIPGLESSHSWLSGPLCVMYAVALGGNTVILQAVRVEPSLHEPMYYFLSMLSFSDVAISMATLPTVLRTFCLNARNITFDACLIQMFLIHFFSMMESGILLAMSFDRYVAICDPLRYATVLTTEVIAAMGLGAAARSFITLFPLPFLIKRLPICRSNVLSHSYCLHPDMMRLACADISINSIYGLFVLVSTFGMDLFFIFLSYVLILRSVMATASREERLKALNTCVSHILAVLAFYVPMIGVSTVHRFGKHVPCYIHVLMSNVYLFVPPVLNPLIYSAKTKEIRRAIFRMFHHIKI
# Procedure: as §1, §2, §3, §4, §5
# [3] = Sensory evaluation test of nonanoic acid odor inhibition; type: in vivo; details: test substance diluted 10 times with propylene glycol (FIG. 6)
# Procedure: as §6
# [4] = 1 mM hexanoic acid, test substance 3, 10, 30, 100, 300 μM (FIG. 4)
Molecule,Inhibition ratio of OR51L1 response (OR51L1),Inhibition of OR51L1 response to hexanoic acid (in words) (OR51L1; [4]),Inhibition of isovaleric acid odor (in words) [1],Inhibition of cresol odor (in words) [2],Inhibition of OR51I2 response to hexanoic acid (in words) (OR51I2; [4]),"Inhibition ratio of OR51I2 response (OR51I2; response to hexanoic acid, test substance added together with hexanoic acid, HEK293)",Inhibition of nonanoic acid odor (in words) [3]
"2,4,6-trimethyl-3-cyclohexene-1-carboxyaldehyde, 3,5,6-trimethyl-3-cyclohexene-1-carboxyaldehyde [Isocyclocitral]",1 (Inhibition ratio: 50% or higher),–,–,–,–,–,–
"CC(C)c1cccc(C(C)CC=O)c1 (centres unmarked) [Florhydral, 3-(3-isopropylphenyl)-butyraldehyde]",1 (Inhibition ratio: 50% or higher),in a concentration-dependent manner,the odors were also inhibited,not inhibited,in a concentration-dependent manner,1 (Inhibition ratio: 50% or higher),the odors were also inhibited
